Experimental data reported in patent US6825172B2, “3-descladinosyl-6-O-carbamoyl and 6-O-carbonoyl macrolide antibacterial agents” (Janssen Pharmaceutica, NV, priority 2002, dated 2004).
In brackets after ≈: the same amount, converted by molar mass. Like-named read-outs stand apart in the source and are kept apart here.

What was measured:
Assay in all cases: MIC, microdilution broth method (NCCLS)
Format in all cases: cell-based
E. coli OC2605 = conditions: Escherichia coli
In short: (§1)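 NCCLS M7-A4 broth microdilution: two-fold drug dilutions in cation-adjusted Mueller-Hinton broth, inoculum approximately 5×10^4 CFU/well. Trays incubated at 35 °C for 16-20 hours. MIC read by comparing growth to compound-free growth controls.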

H. influenzae ATCC49247 = conditions: Haemophilus influenzae, read-out: MIC Values, E: H. influenzae ATCC49247
In short: as §1

S. pneumoniae ATCC49619 = conditions: Streptococcus pneumoniae, read-out: MIC Values, D: S. pneumoniae ATCC49619
In short: as §1

E. faecalis ATCC29212 = conditions: Enterococcus faecalis, read-out: MIC Values, C: E. faecalis ATCC29212
In short: as §1

S. aureus ATCC29213 = conditions: Staphylococcus aureus, read-out: MIC Values, B: S. aureus ATCC29213
In short: as §1

[1] = Table 1, 6-Carbamoyl-3-Acyl Macrolide Derivatives, read-out: MIC Values, A: E. coli OC2605
[2] = Table 1, 6-Carbamoyl-3-Acyl Macrolide Derivatives
[3] = Table 2, 3,6-Dicarbamoyl Macrolide Derivatives, read-out: MIC Values, A: E. coil OC2605
[4] = Table 2, 3,6-Dicarbamoyl Macrolide Derivatives

| SMILES | MIC (E. coli OC2605; [1]) | MIC (H. influenzae ATCC49247; [2]) | MIC (S. pneumoniae ATCC49619; [2]) | MIC (E. faecalis ATCC29212; [2]) | MIC (S. aureus ATCC29213; [2]) | MIC (E. coli OC2605; [3]) | MIC (H. influenzae ATCC49247; [4]) | MIC (S. pneumoniae ATCC49619; [4]) | MIC (E. faecalis ATCC29212; [4]) | MIC (S. aureus ATCC29213; [4]) |
| --- | --- | --- | --- | --- | --- | --- | --- | --- | --- | --- |
| CC[C@H]1OC(=O)[C@H](C)[C@@H](OC(=O)c2ccccc2)[C@H](C)[C@@H](O[C@@H]2O[C@H](C)C[C@H](N(C)C)[C@H]2O)[C@](C)(OC(=O)NC/C=C/c2cccnc2)C[C@@H](C)C(=O)[C@H](C)[C@H]2NC(=O)O[C@@]21C [Compound 18] | > 16 µg/mL | 8 µg/mL (≈ 9.25 µM) | 0.12 µg/mL (≈ 0.139 µM) | 0.5 µg/mL (≈ 0.578 µM) | 4 µg/mL (≈ 4.62 µM) |  |  |  |  |  |
| CC[C@H]1OC(=O)[C@H](C)[C@@H](OC(=O)Cc2ccccn2)[C@H](C)[C@@H](O[C@@H]2O[C@H](C)C[C@H](N(C)C)[C@H]2O)[C@](C)(OC(=O)NC/C=C/c2ccc(C#N)nc2)C[C@@H](C)C(=O)[C@H](C)[C@H]2NC(=O)O[C@@]21C [Compound 29] | 16 µg/mL (≈ 17.7 µM) | 2 µg/mL (≈ 2.21 µM) | 0.03 µg/mL (≈ 0.0331 µM) | 0.25 µg/mL (≈ 0.276 µM) | 0.5 µg/mL (≈ 0.552 µM) |  |  |  |  |  |
| CC[C@H]1OC(=O)[C@H](C)[C@@H](OC(=O)N(CC)CCO)[C@H](C)[C@@H](O[C@@H]2O[C@H](C)C[C@H](N(C)C)[C@H]2O)[C@](C)(OC(=O)NC/C=C/c2ccc(-c3ncccn3)cc2)C[C@@H](C)C(=O)[C@H](C)[C@H]2NC(=O)O[C@@]21C [Compound 66] |  |  |  |  |  | > 16 µg/mL | 16 µg/mL (≈ 16.8 µM) | 0.25 µg/mL (≈ 0.262 µM) | 2 µg/mL (≈ 2.1 µM) | 4 µg/mL (≈ 4.2 µM) |
| CC[C@H]1OC(=O)[C@H](C)[C@@H](OC(=O)c2ccc([N+](=O)[O-])cc2)[C@H](C)[C@@H](O[C@@H]2O[C@H](C)C[C@H](N(C)C)[C@H]2O)[C@](C)(OC(=O)NC/C=C/c2ccc(-c3ncccn3)cc2)C[C@@H](C)C(=O)[C@H](C)[C@H]2NC(=O)O[C@@]21C [Compound 10] | > 16 µg/mL | 8 µg/mL (≈ 8.1 µM) | 0.12 µg/mL (≈ 0.122 µM) | 1 µg/mL (≈ 1.01 µM) | 2 µg/mL (≈ 2.03 µM) |  |  |  |  |  |
| CC[C@H]1OC(=O)[C@H](C)[C@@H](OC(=O)Cc2ccccn2)[C@H](C)[C@@H](O[C@@H]2O[C@H](C)C[C@H](N(C)C)[C@H]2O)[C@](C)(OC(=O)NC/C=C/c2cnc3ccccc3c2)C[C@@H](C)C(=O)[C@H](C)[C@H]2NC(=O)O[C@@]21C [Compound 32] | 8 µg/mL (≈ 8.6 µM) | 2 µg/mL (≈ 2.15 µM) | 0.03 µg/mL (≈ 0.0323 µM) | 0.25 µg/mL (≈ 0.269 µM) | 0.5 µg/mL (≈ 0.538 µM) |  |  |  |  |  |
| CC[C@H]1OC(=O)[C@H](C)[C@@H](OC(=O)c2cccnc2)[C@H](C)[C@@H](O[C@@H]2O[C@H](C)C[C@H](N(C)C)[C@H]2O)[C@](C)(OC(=O)NC/C=C/c2ccc(-c3ncccn3)cc2)C[C@@H](C)C(=O)[C@H](C)[C@H]2NC(=O)O[C@@]21C [Compound 7] | > 16 µg/mL | 8 µg/mL (≈ 8.48 µM) | 0.06 µg/mL (≈ 0.0636 µM) | 0.5 µg/mL (≈ 0.53 µM) | 1 µg/mL (≈ 1.06 µM) |  |  |  |  |  |
| CC[C@H]1OC(=O)[C@H](C)[C@@H](OC(=O)N(CC)c2cccnc2)[C@H](C)[C@@H](O[C@@H]2O[C@H](C)C[C@H](N(C)C)[C@H]2O)[C@](C)(OC(=O)NC/C=C/c2ccc(-c3ncccn3)cc2)C[C@@H](C)C(=O)[C@H](C)[C@H]2NC(=O)O[C@@]21C [Compound 65] |  |  |  |  |  | > 16 µg/mL | 8 µg/mL (≈ 8.11 µM) | 0.25 µg/mL (≈ 0.254 µM) | 1 µg/mL (≈ 1.01 µM) | 1 µg/mL (≈ 1.01 µM) |
| CC[C@H]1OC(=O)[C@H](C)[C@@H](OC(=O)Cc2cccnc2)[C@H](C)[C@@H](O[C@@H]2O[C@H](C)C[C@H](N(C)C)[C@H]2OC(C)=O)[C@](C)(OC(=O)NCc2cnc3ccccc3c2)C[C@@H](C)C(=O)[C@H](C)[C@H]2NC(=O)O[C@@]21C [Compound 22] | 16 µg/mL (≈ 16.9 µM) | 2 µg/mL (≈ 2.11 µM) | 0.03 µg/mL (≈ 0.0317 µM) | 0.25 µg/mL (≈ 0.264 µM) | 0.5 µg/mL (≈ 0.528 µM) |  |  |  |  |  |
| CC[C@H]1OC(=O)[C@H](C)[C@@H](OC(=O)Cc2cccnc2)[C@H](C)[C@@H](O[C@@H]2O[C@H](C)C[C@H](N(C)C)[C@H]2O)[C@](C)(OC(=O)NC/C=C/c2ccccc2)C[C@@H](C)C(=O)[C@H](C)[C@H]2NC(=O)O[C@@]21C [Compound 21] | 8 µg/mL (≈ 9.1 µM) | 2 µg/mL (≈ 2.28 µM) | 0.06 µg/mL (≈ 0.0683 µM) | 0.25 µg/mL (≈ 0.284 µM) | 0.5 µg/mL (≈ 0.569 µM) |  |  |  |  |  |
| CC[C@H]1OC(=O)[C@H](C)[C@@H](OC(=O)Cc2cccnc2)[C@H](C)[C@@H](O[C@@H]2O[C@H](C)C[C@H](N(C)C)[C@H]2O)[C@](C)(OC(=O)NC/C=C/c2cccnc2)C[C@@H](C)C(=O)[C@H](C)[C@H]2NC(=O)O[C@@]21C [Compound 19] | 16 µg/mL (≈ 18.2 µM) | 1 µg/mL (≈ 1.14 µM) | 0.06 µg/mL (≈ 0.0682 µM) | 0.25 µg/mL (≈ 0.284 µM) | 1 µg/mL (≈ 1.14 µM) |  |  |  |  |  |
| CC[C@H]1OC(=O)[C@H](C)[C@@H](OC(=O)Nc2ccc(F)cc2)[C@H](C)[C@@H](O[C@@H]2O[C@H](C)C[C@H](N(C)C)[C@H]2O)[C@](C)(OC(=O)NC/C=C/c2ccc(-c3ncccn3)cc2)C[C@@H](C)C(=O)[C@H](C)[C@H]2NC(=O)O[C@@]21C [Compound 52] |  |  |  |  |  | > 16 µg/mL | 4 µg/mL (≈ 4.1 µM) | 0.12 µg/mL (≈ 0.123 µM) | 1 µg/mL (≈ 1.03 µM) | 1 µg/mL (≈ 1.03 µM) |
| CC[C@H]1OC(=O)[C@H](C)[C@@H](OC(=O)CCc2cccnc2)[C@H](C)[C@@H](O[C@@H]2O[C@H](C)C[C@H](N(C)C)[C@H]2O)[C@](C)(OC(=O)NC/C=C/c2ccc(-c3ncccn3)cc2)C[C@@H](C)C(=O)[C@H](C)[C@H]2NC(=O)O[C@@]21C [Compound 3] | > 16 µg/mL | 2 µg/mL (≈ 2.06 µM) | 0.06 µg/mL (≈ 0.0618 µM) | 0.25 µg/mL (≈ 0.257 µM) | 0.5 µg/mL (≈ 0.515 µM) |  |  |  |  |  |
| CC[C@H]1OC(=O)[C@H](C)[C@@H](OC(=O)N(CC)CC)[C@H](C)[C@@H](O[C@@H]2O[C@H](C)C[C@H](N(C)C)[C@H]2O)[C@](C)(OC(=O)NC/C=C/c2ccc(-c3ncccn3)cc2)C[C@@H](C)C(=O)[C@H](C)[C@H]2NC(=O)O[C@@]21C [Compound 56] |  |  |  |  |  | 16 µg/mL (≈ 17.1 µM) | 4 µg/mL (≈ 4.27 µM) | 0.06 µg/mL (≈ 0.064 µM) | 0.5 µg/mL (≈ 0.534 µM) | 0.5 µg/mL (≈ 0.534 µM) |
| CC[C@H]1OC(=O)[C@H](C)[C@@H](OC(=O)Nc2ccc(OC)nc2)[C@H](C)[C@@H](O[C@@H]2O[C@H](C)C[C@H](N(C)C)[C@H]2O)[C@](C)(OC(=O)NC/C=C/c2ccc(-c3ncccn3)cc2)C[C@@H](C)C(=O)[C@H](C)[C@H]2NC(=O)O[C@@]21C [Compound 50] |  |  |  |  |  | > 16 µg/mL | 4 µg/mL (≈ 4.05 µM) | 0.12 µg/mL (≈ 0.121 µM) | 0.5 µg/mL (≈ 0.506 µM) | 1 µg/mL (≈ 1.01 µM) |
| CC[C@H]1OC(=O)[C@H](C)[C@@H](OC(=O)Cc2ccccn2)[C@H](C)[C@@H](O[C@@H]2O[C@H](C)C[C@H](N(C)C)[C@H]2O)[C@](C)(OC(=O)NC/C=C/c2cccnc2)C[C@@H](C)C(=O)[C@H](C)[C@H]2NC(=O)O[C@@]21C [Compound 20] | 8 µg/mL (≈ 9.09 µM) | 1 µg/mL (≈ 1.14 µM) | 0.03 µg/mL (≈ 0.0341 µM) | 0.25 µg/mL (≈ 0.284 µM) | 0.5 µg/mL (≈ 0.568 µM) |  |  |  |  |  |
| CC[C@H]1OC(=O)[C@H](C)[C@@H](OC(=O)Cc2cccnc2)[C@H](C)[C@@H](O[C@@H]2O[C@H](C)C[C@H](N(C)C)[C@H]2O)[C@](C)(OC(=O)NC/C=C/c2ccc(Br)nc2)C[C@@H](C)C(=O)[C@H](C)[C@H]2NC(=O)O[C@@]21C [Compound 28] | 8 µg/mL (≈ 8.34 µM) | 1 µg/mL (≈ 1.04 µM) | < 0.015 µg/mL | 0.25 µg/mL (≈ 0.261 µM) | 0.5 µg/mL (≈ 0.521 µM) |  |  |  |  |  |
| CC[C@H]1OC(=O)[C@H](C)[C@@H](OC(=O)N(C)C)[C@H](C)[C@@H](O[C@@H]2O[C@H](C)C[C@H](N(C)C)[C@H]2O)[C@](C)(OC(=O)NC/C=C/c2ccc(-c3ncccn3)cc2)C[C@@H](C)C(=O)[C@H](C)[C@H]2NC(=O)O[C@@]21C [Compound 55] |  |  |  |  |  | 16 µg/mL (≈ 17.6 µM) | 4 µg/mL (≈ 4.4 µM) | 0.03 µg/mL (≈ 0.033 µM) | 0.25 µg/mL (≈ 0.275 µM) | 0.5 µg/mL (≈ 0.55 µM) |
| CC[C@H]1OC(=O)[C@H](C)[C@@H](OC(=O)Cc2cccnc2)[C@H](C)[C@@H](O[C@@H]2O[C@H](C)C[C@H](N(C)C)[C@H]2O)[C@](C)(OC(=O)NC/C=C/C=C/c2ccccn2)C[C@@H](C)C(=O)[C@H](C)[C@H]2NC(=O)O[C@@]21C [Compound 27] | 8 µg/mL (≈ 8.83 µM) | 1 µg/mL (≈ 1.1 µM) | 0.03 µg/mL (≈ 0.0331 µM) | 0.25 µg/mL (≈ 0.276 µM) | 0.5 µg/mL (≈ 0.552 µM) |  |  |  |  |  |
